# Literature values in patent US20190290552A1, “ETHANOLIC COMPOSITIONS COMPRISING PERFUME” (Conopco, Inc., d/b/a UNILEVER, priority 2016, published 2019).
# Settings: taken from the Good Scents website
row,LogKow,SMILES
1,3.4,C=C(C)[C@H]1CC=C(C)CC1 [Limonene]
2,4.8,CC1=CC[C@]2(C)CCCC(C)(C)[C@@]23C[C@@H]13 [Thujopsene]
3,4.1,C=CC(C)(CCC=C(C)C)OC(=O)CCC (centres unmarked) [Linalyl Butyrate]
4,3.6,CC(C=O)Cc1ccc(C(C)(C)C)cc1 (centres unmarked) [Lilial]
5,2.7,CCCCCC1C(=O)CCC1CC(=O)OC (centres unmarked) [Methyl dihydrojasmonate]
6,4.7,O=C1CCCCCCCCCCCCO1 [Oxacyclotetradecan-2-one]
7,2.7,C=CC(C)(O)CCC=C(C)C (centres unmarked) [Linalool]
8,3.7,"C=CC(C)(O)CCC=C(C)CC (centres unmarked) [3,7-Dimethyl-1,6-nonadien-3-ol]"
